Patent publication US20230103444A1 (The Regents of the University of Colorado, a Body Corporate, priority 2020, published 2023)

Legend:
[1] = system: HCT116 cells; assay: Invasion assay (scratch wound in Matrigel); assay type: cell-based, human; conditions: 50% Matrigel, 48-72 h
Procedure: A hallmark of EMT is an increase in CSC stemness and cell invasion. Therefore, the ability of compounds 5-7 to inhibit migration and invasion in HCT-116 and DLD1^CHD1L-OE cells was tested. […] Note that DLD1^CHD1L-OE cells form two times more colonies than HCT-116 cells, which have moderate CHD1L expression. This observation is consistent with CHD1L's oncogenic and tumorigenic properties. Next, using HCT-116 cells with uniform scratch wounds imbedded in 50% Matrigel® matrix (Corning Life Sciences, Corning, N.Y.) cells were treated with CHD1L inhibitors at concentrations indicated and invasion was monitored over 72 h.
HCT116 cells were plated at 60,000 cells/well into an IncuCyte® ImageLock 96-well plate (Sartorius, France) and allowed to attach overnight. A wound was created in all wells using the IncuCyte® WoundMaker then washed 2× with PBS. The plate was brought to 4° C. using a Corning XT Cool Core to avoid polymerization of the Matrigel® matrix (Corning Life Sciences, Corning, N.Y.) during the preparation of the invasion conditions. Wells were coated with 50 μL of 50% Matrigel® matrix in RPMI-1640 media. Plates were centrifuged at 150 rpm at 4° C. for 3 min, using a swing bucket rotor to ensure even matrix coating with no air bubbles. […]

[2] = target: T1, cat-CHD1L ATPase (Homo sapiens, UniProt Q86WJ1); assay: CHD1L ATPase assay with recombinant catalytic domain (cat-CHD1L); assay type: biochemical; conditions: for inhibition at 20 µM: confirmed HTS hits, HTS at 20 μM, read-out: inhibition against cat-CHD1L ATPase; for IC50: units given with the values (nM, μM), read-out: activity in dose response studies against cat-CHD1L ATPase (IC50, FIG. 1A)
T1 construct: inferred from Ni-NTA / imidazole purification; made in house; host or cells: E. coli Rosetta 2 (DE3) pLysS; constructs were a gift from Helena Berglund, Karolinska Institute
T1 sequence (Q86WJ1 16-611 limits assumed): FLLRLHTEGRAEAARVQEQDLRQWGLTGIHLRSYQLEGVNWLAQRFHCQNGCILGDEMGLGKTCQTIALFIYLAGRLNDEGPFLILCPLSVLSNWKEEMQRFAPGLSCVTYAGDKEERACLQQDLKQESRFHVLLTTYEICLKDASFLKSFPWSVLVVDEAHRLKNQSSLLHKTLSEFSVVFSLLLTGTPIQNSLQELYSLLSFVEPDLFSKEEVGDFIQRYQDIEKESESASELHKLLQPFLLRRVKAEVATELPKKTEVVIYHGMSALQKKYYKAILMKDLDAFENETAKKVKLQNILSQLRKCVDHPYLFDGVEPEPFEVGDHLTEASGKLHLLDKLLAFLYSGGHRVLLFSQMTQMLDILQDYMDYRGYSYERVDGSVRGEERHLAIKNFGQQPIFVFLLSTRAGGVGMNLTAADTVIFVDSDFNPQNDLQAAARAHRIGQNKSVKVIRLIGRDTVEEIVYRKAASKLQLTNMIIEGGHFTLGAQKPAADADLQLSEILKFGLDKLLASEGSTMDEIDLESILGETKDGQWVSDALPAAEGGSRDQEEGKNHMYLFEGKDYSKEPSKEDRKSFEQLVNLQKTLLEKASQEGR
In short: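 Recombinant cat-CHD1L (100 nM) was incubated with 200 nM c-Myc DNA or mononucleosome in 50 mM Tris pH 7.5, 50 mM NaCl, 1 mM DTT and 5% glycerol, with 10 μM ATP, for 1 h at 37 °C. Background came from no-enzyme wells, with 1% DMSO and 10 mM EDTA as controls.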

| Structure (SMILES) | inhibition of invasion, in words ([1]; listed as 6.0) | inhibition at 20 µM [2] [%] | IC50 [2] [nM] | inhibition of invasion, in words [1] |
| --- | --- | --- | --- | --- |
| Cc1cc(Nc2ccc(NC(=O)Cc3cccs3)cc2)nc(N2CCCC2)n1 [Compound 6, N-(4-((6-methyl-2-(pyrrolidin-1-yl)pyrimidin-4-yl)amino)phenyl)-2-(thiophen-2-yl)acetamide] | most potent activity | > 50 | 900 to 5000 | – |
| COc1ccc(-c2nc(S(=O)(=O)c3ccccc3)c(S(C)(=O)=O)o2)cc1 [Compound 5] | – | > 50 | 900 to 5000 | – |
| Cc1cc(Nc2ccc(NC(=O)c3c[nH]c4ccccc34)cc2)nc(N2CCCC2)n1 [Compound 6.3, N-(4-((6-methyl-2-(pyrrolidin-1-yl)pyrimidin-4-yl)amino)phenyl)-1H-indole-3-carboxamide] | – | – | – | significantly inhibits HCT116 invasive potential |
